Test system: Plasmodium berghei
Assay: Luciferase/luciferin-expressing antifolate-resistant parasites were used to infect a culture of HepG2 cells that were pre-incubated with compounds. Infected hepatocytes emit light due to the luciferase reaction. Assay results are presented as the percent inhibition of light emission compared to control. […]
Format: functional
Conditions: sporozoite; for IC90: read-out: LUCIFERASE INFECTION ASSAY - IC90
[1] = read-out: LUCIFERASE INFECTION ASSAY - IC50

| Compound | IC90 [µM] | IC50 [1] [µM] | further results |
| --- | --- | --- | --- |
| c1ccc(C(Nc2ncnc3sccc23)c2ccco2)cc1 (stereo unspecified) | > 10 | – | IC50 (PBLUC_HILL_SLOPE 17.3, PBLUC_R_SQUARED 0.0145, read-out: LUCIFERASE INFECTION ASSAY - IC50): 8.98 µM |
| Cc1cccn2cc(CN3CCC(c4nc5ccccc5s4)CC3)nc12 | 3.59 | – | IC50 (PBLUC_HILL_SLOPE 8.96, 1.52, PBLUC_R_SQUARED 0.442, 0.954, read-out: LUCIFERASE INFECTION ASSAY - IC50): 2.59 µM |
| COc1ccc(-[n+]2c(-c3ccc(Br)cc3)cn3c2CCc2ccccc2-3)cc1 | 3.77 | – | IC50 (HEPG2TOX_HILL_SLOPE 3.09, HEPG2TOX_R_SQUARED 0.93, PBLUC_HILL_SLOPE 14.3, PBLUC_R_SQUARED 0.689, read-out: LUCIFERASE INFECTION ASSAY - IC50): 3.23 µM |
| CC(CC(=O)Nc1ccc(Cl)cc1)NCC(C)(C)N1CCOCC1 (stereo unspecified) | > 10 | – | IC50 (PBLUC_HILL_SLOPE 1.7, PBLUC_R_SQUARED 0.0143, read-out: LUCIFERASE INFECTION ASSAY - IC50): 4.7 µM |
| O=C1N(CN2CCCCC2)c2ccc(Br)cc2C12OCCO2 | > 8.99 | > 8.99 | – |
| Cc1cnc(NC(=O)c2ccc(Cl)c(S(=O)(=O)N(Cc3ccccc3)c3ccccc3Cl)c2)s1 | > 10 | > 10 | – |
| N#Cc1ccccc1S(=O)(=O)Oc1ccccc1C(F)(F)F | > 10 | > 10 | – |
| Cc1cc(C)n(CC(=O)n2cc(C(=O)c3cc(F)ccc3O)cn2)n1 | > 10 | > 10 | – |
| CSc1nnc(-c2csc(S(=O)(=O)Nc3ccccc3Cl)c2)n1C | > 8.23 | > 8.23 | – |
| CCOC(=O)c1c(NC(=O)CSc2ncnc3scc(-c4ccc(OC)cc4)c23)sc2c1CCCC2 | > 10 | – | IC50 (HEPG2TOX_HILL_SLOPE 1.83, HEPG2TOX_R_SQUARED 0.223, read-out: LUCIFERASE INFECTION ASSAY - IC50): > 10 µM |
| CCOC(=O)c1c(S(=O)(=O)Nc2ccccc2Cl)c(-c2ccccc2)n(-c2ccccc2)c1C | > 6.67 | > 6.67 | – |
| CCOC(=O)C1=C(C)NC(C)=C(C(=O)OCC)C1c1ccc(-c2cc(C(F)(F)F)cc(C(F)(F)F)c2)o1 | > 6.21 | – | IC50 (FFLUC_HILL_SLOPE 13.3, FFLUC_R_SQUARED 0.16, read-out: LUCIFERASE INFECTION ASSAY - IC50): > 6.21 µM |
| CC(C)CNC1=C(Cl)C(=O)c2ccccc2C1=O | > 12.5 | – | IC50 (PBLUC_HILL_SLOPE 2.71, PBLUC_R_SQUARED 0.283, read-out: LUCIFERASE INFECTION ASSAY - IC50): 11.4 µM |
| COC(=O)c1c(NC(C)=O)c2cc(NCC3CC=CCC3)cnc2n1CCc1c[nH]c2ccccc12 (stereo unspecified) | > 6.8 | – | IC50 (PBLUC_HILL_SLOPE 16.1, PBLUC_R_SQUARED 0.211, read-out: LUCIFERASE INFECTION ASSAY - IC50): 6.66 µM |
| FC(F)(F)c1c(-c2ccccc2)c2cc(Cl)ccc2n1Cc1ccccc1 | > 8.55 | – | IC50 (PBLUC_HILL_SLOPE 1.92, PBLUC_R_SQUARED 0.0693, read-out: LUCIFERASE INFECTION ASSAY - IC50): 7.21 µM |
| COc1cccc(C(=O)Nc2ccc3nc(-c4cc(OC)c(OC)c(OC)c4)nn3c2)c1 | 7.64 | – | IC50 (PBLUC_HILL_SLOPE 1.78, PBLUC_R_SQUARED 0.523, read-out: LUCIFERASE INFECTION ASSAY - IC50): 2.22 µM |
| Cc1ccccc1-c1ccc(CN2CCC3(CC2)C(=O)N(C)C(=O)N3CC(C)C)cc1 | 3.99 | – | IC50 (HEPG2TOX_HILL_SLOPE 1.94, HEPG2TOX_R_SQUARED 0.943, PBLUC_HILL_SLOPE 7.56, PBLUC_R_SQUARED 0.512, read-out: LUCIFERASE INFECTION ASSAY - IC50): 2.99 µM |
| CCOC(=O)c1c(S(=O)(=O)Nc2ccc(Cl)cc2)c(-c2ccccc2)n(-c2ccccc2)c1C | > 6.67 | 4.84 | – |
| CN1CCN(c2ccc(-c3cn4c(-c5cccc(O)c5)cnc4cn3)cc2)CC1 | > 8.56 | – | IC50 (HEPG2TOX_HILL_SLOPE 8.09, HEPG2TOX_R_SQUARED 0.0909, PBLUC_HILL_SLOPE 1.65, PBLUC_R_SQUARED 0.318, read-out: LUCIFERASE INFECTION ASSAY - IC50): 7.19 µM |
| CCC(=O)/C(=N/Nc1ccccc1)C(=O)OC | > 14.1 | > 14.1 | – |
| CC1=C(C#N)C(/C=N/N(C)c2ncc(C(F)(F)F)cc2Cl)CC(=O)N1 (stereo unspecified) | 3.84 | – | IC50 (HEPG2TOX_HILL_SLOPE 2.47, HEPG2TOX_R_SQUARED 0.965, PBLUC_HILL_SLOPE 13.6, PBLUC_R_SQUARED 0.0536, read-out: LUCIFERASE INFECTION ASSAY - IC50): 3.27 µM |
| Oc1ccc(/C=C/c2ccc3cccc(O)c3n2)cc1 | 5.07 | – | IC50 (HEPG2TOX_HILL_SLOPE 13.8, HEPG2TOX_R_SQUARED 0.969, PBLUC_HILL_SLOPE 21.8, PBLUC_R_SQUARED 0.339, read-out: LUCIFERASE INFECTION ASSAY - IC50): 4.58 µM |

| Compound | IC90 [µM] | IC50 [1] [µM] | further results |
| --- | --- | --- | --- |
| CNC(=O)NC(=O)COc1ccccc1C#N | > 10 | – | IC50 (FFLUC_HILL_SLOPE 16.2, FFLUC_R_SQUARED 0.422, read-out: LUCIFERASE INFECTION ASSAY - IC50): > 10 µM |
| CCCCNc1nc(-c2ccccc2)c(C(=O)OCC)cc1C#N | 9.48 | – | IC50 (HEPG2TOX_HILL_SLOPE 4.31, HEPG2TOX_R_SQUARED 0.989, PBLUC_HILL_SLOPE 14.5, PBLUC_R_SQUARED 0.263, read-out: LUCIFERASE INFECTION ASSAY - IC50): 8.14 µM |
| CNc1nc2cnc(-c3ccc(F)c(Cl)c3)cc2n1Cc1ccc(OC)c(OC)c1 | 3.93 | – | IC50 (PBLUC_HILL_SLOPE 1.59, PBLUC_R_SQUARED 0.826, read-out: LUCIFERASE INFECTION ASSAY - IC50): 0.992 µM |
| CCOC(=O)c1c(C)[nH]c(C(=O)COC(=O)c2nc(-c3ccccc3)n(-c3ccccc3)n2)c1C | > 10 | > 10 | – |
| COc1ccc(-n2c(SCc3nc4ccccc4s3)nc3ccccc32)cc1 | > 10 | > 10 | – |
| COC(=O)c1c(NC(C)=O)c2cc(NC(C)CC(C)C)cnc2n1CCC(C)C (stereo unspecified) | > 8.2 | > 8.2 | – |
| c1ccc2cc(-c3csc(Nc4cccc5ccccc45)n3)ccc2c1 | > 9.36 | > 9.36 | – |
| CC(=O)O[C@H]1C[C@@H](O[C@@H]2C(C)O[C@H](O[C@@H]3C(C)O[C@@H](O[C@H]4CC[C@@]5(C)C(CCC6C5C[C@@H](O)[C@]5(C)[C@@H](C7=CC(=O)OC7)CC[C@]65O)C4)C[C@@H]3O)C[C@@H]2O)OC(C)[C@H]1O[C@@H]1O[C@H](CO)[C@@H](O)[C@H](O)[C@H]1O (stereo partly specified) | > 3.35 | – | IC50 (HEPG2TOX_HILL_SLOPE 2.2, HEPG2TOX_R_SQUARED 0.634, PBLUC_HILL_SLOPE 2.28, PBLUC_R_SQUARED 0.618, read-out: LUCIFERASE INFECTION ASSAY - IC50): 1.57 µM |
| O=c1c(NS(=O)(=O)c2ccc(Cl)cc2)cccn1Cc1ccc(Cl)c(Cl)c1 | > 7.44 | > 7.44 | – |
| COc1ccc2[nH]cc(C(=O)CN3CCC(Cc4ccccc4)CC3)c2c1 | > 9.1 | – | IC50 (PBLUC_HILL_SLOPE 15.2, PBLUC_R_SQUARED 0.148, read-out: LUCIFERASE INFECTION ASSAY - IC50): 8.48 µM |
| COc1ccc(OCCSCc2cc(=O)n3c4c(sc3n2)CCCC4)cc1 | > 10 | > 10 | – |
| O=C(CNc1cccc(C(F)(F)F)c1)N/N=C/c1c2ccccc2c(Cl)c2ccccc12 | > 10 | – | IC50 (HEPG2TOX_HILL_SLOPE 7.3, HEPG2TOX_R_SQUARED 0.234, PBLUC_HILL_SLOPE 3.59, PBLUC_R_SQUARED 0.507, read-out: LUCIFERASE INFECTION ASSAY - IC50): 6.19 µM |
| Cc1cc(C)c(-c2csc(NC(=O)C3CC4CCCC(C3)C4=O)n2)c(C)c1 (stereo unspecified) | > 10 | – | IC50 (HEPG2TOX_HILL_SLOPE 3.24, HEPG2TOX_R_SQUARED 0.936, PBLUC_HILL_SLOPE 1.48, PBLUC_R_SQUARED 0.583, read-out: LUCIFERASE INFECTION ASSAY - IC50): 2.93 µM |
| CCOC(=O)c1c(-c2ccc(Cl)cc2)csc1Nc1nc(S(=O)(=O)c2ccc(Cl)cc2)c(Cl)s1 | > 10 | 5.47 | – |
| CCOC(=O)c1c(Sc2ccccc2)cnn1C(=O)Nc1cccc(Cl)c1 | > 8.21 | – | IC50 (PBLUC_HILL_SLOPE 0.46, PBLUC_R_SQUARED 0.851, read-out: LUCIFERASE INFECTION ASSAY - IC50): > 8.21 µM |
| O=C(NC1CC1)c1ccc(CN(C2CC2)S(=O)(=O)/C=C/c2ccccc2)cc1 | 4.03 | – | IC50 (PBLUC_HILL_SLOPE 1.61, PBLUC_R_SQUARED 0.829, read-out: LUCIFERASE INFECTION ASSAY - IC50): 1.03 µM |
| COc1ccccc1NS(=O)(=O)c1ccc2c(c1)N=Cc1c(F)cccc1O2 | > 10 | – | IC50 (FFLUC_HILL_SLOPE 2, FFLUC_R_SQUARED 0.88, HEPG2TOX_HILL_SLOPE 51.5, HEPG2TOX_R_SQUARED 0.639, PBLUC_HILL_SLOPE 12.2, PBLUC_R_SQUARED 0.289, read-out: LUCIFERASE INFECTION ASSAY - IC50): 9.2 µM |
| O=C(Nc1ccccc1)Nc1ccccc1Sc1nccc(C(F)(F)F)n1 | 8.05 | – | IC50 (PBLUC_HILL_SLOPE 1.34, PBLUC_R_SQUARED 0.717, read-out: LUCIFERASE INFECTION ASSAY - IC50): 1.57 µM |
| c1ccc(OCCN2CCN(c3ccc(-c4nc5ccccc5[nH]4)cn3)CC2)cc1 | > 10 | – | IC50 (PBLUC_HILL_SLOPE 16.1, PBLUC_R_SQUARED 0.136, read-out: LUCIFERASE INFECTION ASSAY - IC50): 9.41 µM |
| Cc1ccc(Nc2cc(C)nc3c(-c4ccccc4)cnn23)cc1 | > 10.5 | – | IC50 (FFLUC_HILL_SLOPE 0.324, FFLUC_R_SQUARED 0.749, HEPG2TOX_HILL_SLOPE 3.12, HEPG2TOX_R_SQUARED 0.973, read-out: LUCIFERASE INFECTION ASSAY - IC50): > 10.5 µM |
| COCC(C)n1c(C)cc(C(=O)CN2C(=O)c3ccccc3S2(=O)=O)c1C (stereo unspecified) | > 10 | – | IC50 (FFLUC_HILL_SLOPE 1.61, FFLUC_R_SQUARED 0.328, read-out: LUCIFERASE INFECTION ASSAY - IC50): > 10 µM |
